In the supplement of paper PMC10307832:

Key:
Test in all cases: relative viability (nuclei count vs DMSO), 5 days (fraction); higher = more cells survive
Kobe2602 + OSI-027 = compound: C1=CC(=CC=C1NC(=S)NNC2=C(C=C(C=C2[N+](=O)[O-])C(F)(F)F)[N+](=O)[O-])F [Kobe2602] + COc1cccc2cc(-c3nc([C@H]4CC[C@H](C(=O)O)CC4)n4ncnc(N)c34)[nH]c12 [OSI-027] (partner 0.5 µM)
How it was run: (§1)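 Relative viability divides the nuclei count in treated wells by that in vehicle wells. Lung cancer cell lines were seeded in 1536-well plates, dosed by pin tool the next day, and fixed and stained after 5 days in one step with final 0.05% Triton X-100, 1% formaldehyde and 1 ug/ml Hoechst. Dosing was a single drug or a fixed anchor-drug dose plus five library-drug doses (not always all listed) in √10 steps, and values are medians of duplicate plates imaged at 4×.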

Kobe2602 + Decitabine = compound: C1=CC(=CC=C1NC(=S)NNC2=C(C=C(C=C2[N+](=O)[O-])C(F)(F)F)[N+](=O)[O-])F [Kobe2602] + Nc1ncn([C@H]2C[C@H](O)[C@@H](CO)O2)c(=O)n1 [Decitabine] (partner 2 µM)
How it was run: as §1

Cabozantinib + AZD7762 = compound: COc1cc2nccc(Oc3ccc(NC(=O)C4(C(=O)Nc5ccc(F)cc5)CC4)cc3)c2cc1OC [Cabozantinib] + NC(=O)Nc1cc(-c2cccc(F)c2)sc1C(=O)N[C@H]1CCCNC1 [AZD7762] (partner 0.2 µM)
How it was run: as §1

[1] = compound: COc1cc2nccc(Oc3ccc(NC(=O)C4(C(=O)Nc5ccc(F)cc5)CC4)cc3)c2cc1OC [Cabozantinib] + CC1(C)CCC(c2ccc(Cl)cc2)=C(CN2CCN(c3ccc(C(=O)NS(=O)(=O)c4ccc(N[C@H](CCN5CCOCC5)CSc5ccccc5)c(S(=O)(=O)C(F)(F)F)c4)cc3)CC2)C1 [Navitoclax] (partner 0.5 µM)
How it was run: as §1

Cell Line	relative viability (Kobe2602 + OSI-027; first compound 0.2 µM)	relative viability (Kobe2602 + OSI-027; first compound 0.6325 µM)	relative viability (Kobe2602 + OSI-027; first compound 2 µM)	relative viability (Kobe2602 + OSI-027; first compound 6.325 µM)	relative viability (Kobe2602 + OSI-027; first compound 20 µM)	relative viability (Kobe2602 + Decitabine; first compound 0.2 µM)	relative viability (Kobe2602 + Decitabine; first compound 0.6325 µM)	relative viability (Kobe2602 + Decitabine; first compound 2 µM)	relative viability (Kobe2602 + Decitabine; first compound 6.325 µM)	relative viability (Kobe2602 + Decitabine; first compound 20 µM)	relative viability (Cabozantinib + AZD7762; first compound 0.02 µM)	relative viability (Cabozantinib + AZD7762; first compound 0.06325 µM)	relative viability (Cabozantinib + AZD7762; first compound 0.2 µM)	relative viability (Cabozantinib + AZD7762; first compound 0.6325 µM)	relative viability (Cabozantinib + AZD7762; first compound 2 µM)	relative viability ([1]; first compound 0.02 µM)	relative viability ([1]; first compound 0.06325 µM)	relative viability ([1]; first compound 0.2 µM)	relative viability ([1]; first compound 0.6325 µM)	relative viability ([1]; first compound 2 µM)
NCI-H522	0.856	0.687	0.737	0.636	0.672	0.693	0.654	0.649	0.642	0.756	0.704	0.767	0.819	0.999	0.865	–	–	–	–	–
LOU-NH91	0.739	0.786	0.69	0.754	0.71	0.794	0.895	0.801	0.809	0.826	0.637	0.862	0.703	0.752	0.768	0.72	0.845	0.441	0.666	0.7
NCI-H1355	0.395	0.389	0.411	0.41	0.441	0.312	0.368	0.301	0.346	0.358	0.703	0.919	0.83	0.754	0.746	0.96	0.974	0.967	0.893	0.861
NCI-H460	0.662	0.722	0.695	0.629	0.558	–	0.486	0.525	0.472	0.454	0.633	0.801	0.68	0.623	0.63	1.46	1.39	1.09	1.11	1.24
NCI-H2023	0.394	0.387	0.346	0.345	0.278	0.232	0.218	0.207	0.199	0.196	–	–	–	–	–	1.07	1.05	0.931	0.872	0.691
NCI-H358	0.754	0.872	0.873	0.672	0.887	0.222	0.219	0.225	0.177	0.244	0.457	0.715	0.499	0.544	0.62	–	–	–	–	–
SK-LU-1	0.329	0.365	0.359	0.327	0.371	0.672	0.702	0.631	0.581	0.64	–	–	–	–	–	–	1.09	0.967	0.852	0.988
Calu-6	–	–	–	–	–	–	–	–	–	–	–	–	–	–	–	0.76	0.912	0.801	0.739	0.773
NCI-H2342	0.762	0.546	0.614	0.63	0.632	0.846	0.749	0.68	0.658	0.728	0.401	0.69	0.624	0.535	0.415	–	–	–	–	–
COR-L23	0.744	0.782	0.71	0.811	0.737	0.455	0.462	0.409	0.468	0.515	–	–	–	–	–	1.07	1.16	1.03	0.973	0.931
NCI-H1563	0.721	0.743	0.797	0.757	0.754	–	–	–	–	–	–	–	–	–	–	–	–	–	–	–
NCI-H1299	–	–	–	–	–	–	–	–	–	–	–	–	–	–	–	1.03	1.04	1.08	1.06	1.09
NCI-H2009	0.568	0.737	0.591	0.637	0.452	0.358	0.414	0.405	0.394	0.372	–	–	–	–	–	1.25	1.19	1.21	1.18	1.2
NCI-H1623	0.457	0.448	0.424	0.374	0.433	–	–	–	–	–	–	–	–	–	–	–	–	–	–	–
CAL-12T	0.647	0.583	0.572	0.636	0.557	–	–	–	–	–	0.714	0.682	0.641	0.651	0.567	1.51	1.2	1.37	1.17	1.46
SW 900	0.712	0.477	0.499	0.374	0.488	0.559	0.454	0.411	0.452	0.387	0.604	0.761	0.559	0.441	0.448	–	–	–	–	–
NCI-H520	0.281	0.287	0.227	0.235	0.266	0.543	0.616	0.563	0.526	0.48	–	–	–	–	–	0.902	1.16	1.21	1.02	0.998
ABC-1	0.582	0.501	–	0.585	0.628	1.11	1.31	1.05	1.18	1.16	0.678	0.843	0.733	0.844	0.632	–	–	–	–	–
NCI-H1648	0.246	0.277	0.248	0.26	0.25	0.657	0.489	0.402	0.533	0.509	0.792	0.737	–	0.721	0.73	–	–	–	–	–
NCI-H661	0.691	0.71	0.731	0.8	0.672	0.564	0.598	0.589	0.561	0.612	–	–	–	–	–	–	–	–	–	–
IA-LM	–	–	–	–	–	–	–	–	–	–	–	–	–	–	–	1.1	0.912	1.02	1.01	0.965
A549	–	–	–	–	–	0.228	0.266	0.414	0.251	0.247	–	–	–	–	–	1.26	1.24	1.21	1.27	1.08
LCLC-103H	0.466	0.539	0.492	0.448	0.497	0.744	0.703	0.79	0.778	0.718	0.762	0.87	0.811	0.813	0.721	–	–	–	–	–
NCI-H2228	0.658	0.684	0.549	0.416	0.722	–	–	–	–	–	–	–	–	–	–	0.784	0.689	0.725	0.824	0.805
